Test results: PMC4157579, “Lysine Acetylation Controls Local Protein Conformation by Influencing Proline Isomerization” (Molecular Cell, 2014)
Ends that are not written are not given here.

T1: Spt7 bromodomain (residues 363–619) (UniProt P35177 363-619)
T1 construct: Spt7, bromodomain construct, amino acids 363-619; also called purified recombinant Spt7 bromodomain; source: recombinant, expressed and purified as described (Boubriak et al., 2009)
T1 sequence (looked up): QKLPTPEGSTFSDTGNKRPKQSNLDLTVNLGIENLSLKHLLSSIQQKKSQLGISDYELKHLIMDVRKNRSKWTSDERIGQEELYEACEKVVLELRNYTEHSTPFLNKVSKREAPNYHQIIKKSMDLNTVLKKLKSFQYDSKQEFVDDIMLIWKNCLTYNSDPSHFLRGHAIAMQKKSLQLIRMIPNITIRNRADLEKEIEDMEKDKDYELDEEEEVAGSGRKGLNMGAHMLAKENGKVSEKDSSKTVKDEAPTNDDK

B1: K14R-K18ac H3 peptide (11–26) with a valine substitution at P16 (peptide, UniProt P61830 12-27, looked up)
peptide: TGGRAVRK(Ac)QLASKAAR
notes: histone H3, residues 11-26; also called K14R-P16V-K18ac peptide; source: synthetic peptide (GL Biochem and Proteogenix)
B2: P16V-substituted K18ac H3 peptide (11–26) (peptide, UniProt P61830 12-27, looked up)
peptide: TGGKAVRK(Ac)QLASKAAR
notes: histone H3, residues 11-26; also called P16V-K18ac peptide; P16V-K18ac; source: synthetic peptide (GL Biochem and Proteogenix)

Columns and labels:
[1] = tested on: Spt7 bromodomain (residues 363–619); test: SPR binding of H3 peptides to immobilized Spt7 bromodomain; set-up: species or system yeast; details: for Binding to Spt7 bromodomain: SPR, Biacore T100/T200, 25°C, peptides 1-200 µM in HBS-P+, NTA chip-captured His-tagged bromodomain, 1:1 model, Figure 6A, n = 2–11
From the text: (§1) We developed a second assay that involves monitoring the effect of the P16V substitution on the binding of the Spt7 bromodomain to an H3 peptide modified by acetylation at K14 and/or K18 using surface plasmon resonance (SPR) (Figures 6A, S4A, and S4B) or by pull downs (Figures 6B and S4C). Bromodomains are acetyl-lysine binding domains, found in a number of chromatin-associated proteins ([Taverna et al., 2007]) including Spt7. The function and binding specificity of the Spt7 bromodomain are currently unknown, but it preferentially interacts with hyperacetylated histones in vitro ([Hassan et al., 2007]). […] The binding of the Spt7 bromodomain to the P16V-substituted K18ac peptide improved binding by ∼2-fold. […] We reasoned that this could reflect an effect of the side chain on binding or an influence on the conformation of the A15-P16 bond. […] The corollary of this is that acetylation of K14 would correlate with the A15-P16 bond in the trans configuration, supporting ideas that the peptidyl-prolyl bond conformation is mainly determined by local effects in proteins ([Reimer et al., 1998]).
(§2) Figure 6 K14ac Promotes P16trans (A) Relative binding ± SEM (n = 2–11) assessed by surface plasmon resonance of purified recombinant Spt7 bromodomain (residues 363–619) to the indicated H3 peptides (11–26). (B) Coomassie-stained gel showing a pull-down experiment, quantified relative to the K18ac peptide, with the indicated H3 peptides and the purified recombinant Spt7 bromodomain (n = 3). (C) A chymotrypsin-coupled assay for proline isomers using synthetic hexamers based on GGKAPF-pNA (unmodified). pNA is released by chymotrypsin cleavage only from the trans-proline-containing peptide. (D) K14ac and substitutions at K14 influence isomerization at A15-P16 and pNA release, expressed as mean initial rate ± SEM (n = 4–5) over the first 0.6–10.2 s of the reaction. (E) Schematic showing how K14ac or the K14R substitution influence A15-P16 conformation. (F) Schematic showing how dynamic K14ac influences A15-P16 conformation and K4me3 (K4 and K14 denote that these residues are not trimethylated or acetylated respectively). (G) The balance of positive-acting factors (right panel) and negative-acting factors (left panel) controls levels of K4me3 at individual genes. […] See also Figure S4. […]
(n=5771) with the ratios of H3-normalised K4me3 in the K14A and P16V strains relative to the WT strain. Genes with ratios > 2 (n = 7 and 4 for K14A/WT and P16V/WT respectively) have been removed for clarity. Highlighted are the genes with the 200 highest and lowest ratios selected for further analysis (K14/P16-independent and K14/P16-dependent gene classes respectively). (C) Overlap (%) between the four selected gene classes from Figure S3B and the genes temporally expressed during the yeast metabolic cycle (YMC: OX, oxidative; R/B, reductive building; R/C, reductive charging phase), induced/repressed by the environmental stress response (ESR), classed as ribosomal protein genes (RPGs) or ribosome biogenesis genes (Ribis), or regulated predominantly by SAGA or TFIID. […]
YMC and ESR expression data were taken from (Tu et al., 2005) and (Gasch et al., 2000) respectively. SAGA/TFIID-regulated genes were obtained from (Huisinga and Pugh, […]
Figure S4. (Related to Figure 6)
(A) Surface plasmon resonance (SPR) affinity fits for the indicated H3 peptides encompassing residues 11-26 binding to the Spt7 bromodomain (residues 363-619). Also shown is a typical sensorgram of H3 peptide binding to the Spt7 bromodomain […]
values ± SEM for Spt7 binding to variously-modified H3 peptides. (C) A peptide pull-down experiment with a range of H3 peptides and the WT or substituted Spt7 bromodomain […]
Peptides for bromodomain interaction studies
Peptides were synthesized at GL Biochem (Shanghai) LTD, China and Proteogenix, France.
(§3) Purity was determined with MALDI-TOF mass spectrometry and HPLC and the peptides used […]
The peptide sequences are listed in the […]

[2] = tested on: Spt7 bromodomain (residues 363–619); test: Peptide pull-down with Spt7 bromodomain; assay type: binding, yeast; details: for Binding to Spt7 bromodomain: SulfoLink resin, bromodomain 30 µg/ml, 2 h at 4°C, Coomassie gel, relative to K18ac peptide, Figure 6B, n = 3
From the text: as §1, §2
(n=5771) with the ratios of H3-normalised K4me3 in the K14A and P16V strains relative to the WT strain. Genes with ratios > 2 (n = 7 and 4 for K14A/WT and P16V/WT respectively) have been removed for clarity. Highlighted are the genes with the 200 highest and lowest ratios selected for further analysis (K14/P16-independent and K14/P16-dependent gene classes respectively). […]
as §3

[3] = tested on: bromodomain carrying alanine substitutions (Y500A/Y520A/N521A); test: Peptide pull-down with substituted Spt7 bromodomain; assay type: binding, yeast; details: bromodomain with alanine at Y500, Y520 and N521, Figure S4C
From the text: as §1, with “1998]). […]” for “1998]).”
bin expressed as a proportion of the total K4me3 across the gene. […] P values were calculated from a simulated probability distribution curve. […]
as §3

[4] = target: T1, Spt7 bromodomain (residues 363–619); test: SPR; peptides binding to immobilized Spt7 bromodomain; Biacore T100 and T200, 25°C; 1:1 binding model; relative binding; details: both partners purified

Row | Molecule | Binding to Spt7 bromodomain [1] | Binding to Spt7 bromodomain [2] | other results
1 | TGG(Kac)APRKQLASKAARC [peptide acetylated at K14, H3 peptide (11–26) acetylated at K14, for bromodomain studies] | lack of binding | lack of binding | –
2 | TGGRAPR(Kac)QLASKAARC [K14R-K18ac, H3 peptide (11–26), K14R, acetylated K18] | no binding was observed | – | –
3 | TGGKAPRKQLASKAARC [unmodified H3 peptide, H3 peptide (11–26), unmodified, for bromodomain studies] | lack of binding | lack of binding | –
4 | TGGKAPR(Kac)QLASKAARC [K18ac, H3 peptide (11–26) acetylated at K18] | specifically recognized acetylated K18 | specifically recognized acetylated K18 | Enrichment of binding over the unmodified peptide ([2]; WT versus Y500A/Y520A/N521A bromodomain, Figure S4C): enriched; Binding to substituted Spt7 bromodomain [3]: lack of binding
5 | TGG(Kac)APR(Kac)QLASKAARC [peptide acetylated at both K14 and K18] | binding to the Spt7 bromodomain similar to the P16V-K18ac peptide | – | –
6 | TGGKAVR(Kac)QLASKAARC [P16V-K18ac, H3 peptide (11–26), P16V, acetylated K18] | – | – | Improvement of binding to Spt7 bromodomain on P16V substitution ([1]; P16V-substituted versus K18ac peptide, SPR (text does not say whether SPR or pull-down), 25°C): ~2 fold
7 | TGGRAVR(Kac)QLASKAARC [valine substitution at P16 in the K14R-K18ac peptide] | restored binding at levels between the P16V-K18ac and K18ac peptides | – | –
8 | B1 | – | – | binding result [4]: binds
9 | B2 | – | – | fold change of binding against the K18ac peptide [4]: ~2 fold
